Experimental findings from patent US10780090B2, “Heteroaryl compounds useful as inhibitors of SUMO activating enzyme” (Millennium Pharmaceuticals, Inc., priority 2014, dated 2020) are described below.

The structures appear in SMILES notation. Structures can show the parent of a compound that is named as a salt.

For this test, the target named is recombinant human SAE enzyme (Homo sapiens (Human), UniProt Q9UBT2). Briefly: SAE HTRF enzyme assay. Format: biochemical. As to conditions: for inhibition at 0.111 µM / Percent Inhibition: SAE inhibition at compound concentration 0.111 μM; for inhibition at 0.111 µM: read-out: Percent Inhibition; for IC50: SAE inhibition, class symbols, legend in nM. The procedure, abridged: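 First, recombinant human SAE (0.11 nM) transfers Sumo-Flag onto Ubc9-GST using 0.5 μM ATP for 105 min at 24° C. Next, EDTA-containing detection buffer with labelled anti-Flag and anti-GST antibodies is added for 2 h. Finally, FRET is quantified and percent inhibition or IC50 derived.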
(Time-resolved FRET reads energy transfer from a long-lived donor to a nearby acceptor.)

Chain of recombinant human SAE enzyme (Q9UBT2 whole entry): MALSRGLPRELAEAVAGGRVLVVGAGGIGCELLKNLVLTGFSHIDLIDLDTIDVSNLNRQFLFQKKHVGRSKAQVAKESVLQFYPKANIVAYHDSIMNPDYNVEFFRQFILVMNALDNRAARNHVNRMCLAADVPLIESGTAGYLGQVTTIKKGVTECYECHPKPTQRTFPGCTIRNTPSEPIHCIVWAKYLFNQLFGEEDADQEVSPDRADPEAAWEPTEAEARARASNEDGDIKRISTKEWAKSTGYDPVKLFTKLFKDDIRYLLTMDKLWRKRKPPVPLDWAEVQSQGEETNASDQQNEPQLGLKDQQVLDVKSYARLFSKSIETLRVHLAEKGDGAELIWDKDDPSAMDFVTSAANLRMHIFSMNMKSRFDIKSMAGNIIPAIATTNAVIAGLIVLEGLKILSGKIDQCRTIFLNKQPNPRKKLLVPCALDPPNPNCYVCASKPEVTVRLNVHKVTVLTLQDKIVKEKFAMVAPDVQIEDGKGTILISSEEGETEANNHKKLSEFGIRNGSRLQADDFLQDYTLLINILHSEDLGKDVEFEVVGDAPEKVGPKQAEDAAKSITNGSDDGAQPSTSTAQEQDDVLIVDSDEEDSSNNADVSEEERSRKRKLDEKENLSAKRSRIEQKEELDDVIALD
Chain of recombinant human SAE enzyme (Q9UBE0 whole entry partner): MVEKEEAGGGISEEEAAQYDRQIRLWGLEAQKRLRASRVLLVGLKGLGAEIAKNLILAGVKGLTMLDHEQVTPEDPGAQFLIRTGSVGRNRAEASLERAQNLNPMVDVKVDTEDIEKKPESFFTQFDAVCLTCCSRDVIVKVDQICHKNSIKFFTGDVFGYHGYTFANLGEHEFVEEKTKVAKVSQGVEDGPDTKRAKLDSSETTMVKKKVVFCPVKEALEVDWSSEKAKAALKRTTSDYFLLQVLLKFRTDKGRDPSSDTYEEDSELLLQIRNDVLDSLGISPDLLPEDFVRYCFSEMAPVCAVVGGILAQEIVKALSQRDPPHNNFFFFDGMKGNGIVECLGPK

Consider `Cc1sc(C(=O)c2cncnc2N[C@@H]2C[C@H](COS(N)(=O)=O)[C@@H](OC(=O)[C@@H](N)C(C)C)C2)cc1[C@@H]1OCCc2ccc(Cl)cc21` [I-338, (1S,2R,4R)-4-{[5-({4-[(1R)-7-Chloro-3,4-dihydro-1H-isochromen-1-yl]-5-methyl-2-thienyl}carbonyl)pyrimidin-4-yl]amino}-2-[(sulfamoyloxy)methyl]cyclopentyl (2S)-2-amino-3-methylbutanoate], for which the inhibition – broadly, the share of the control response that was lost under treatment – at 0.111 µM came out at 56% and the IC50 (in general, the concentration that gives 50% inhibition) fell in the range of 10 to 100 nM.
In the case of `Cc1sc(C(=O)c2cncnc2N[C@@H]2C[C@H](COS(N)(=O)=O)[C@@H](OC(=O)c3cccc(COP(=O)(O)O)c3)C2)cc1[C@@H]1OCCc2ccc(Cl)cc21` [I-345, (1S,2R,4R)-4-{[5-({4-[(1R)-7-chloro-3,4-dihydro-1H-isochromen-1-yl]-5-methyl-2-thienyl}carbonyl)pyrimidin-4-yl]amino}-2-[(sulfamoyloxy)methyl]cyclopentyl 3-[(phosphonooxy)methyl]benzoate], the inhibition at 0.111 µM was determined as 5% and the IC50 lay in the range of 100 to 1000 nM.
Take `NS(=O)(=O)OC[C@H]1C[C@@H](Nc2ncncc2C(=O)c2ncc(Cc3ccccc3)s2)[C@H](O)[C@@H]1O` [I-350, [(1R,2R,3S,4R)-4-({5-[(5-benzyl-1,3-thiazol-2-yl)carbonyl]pyrimidin-4-yl}amino)-2,3-dihydroxycyclopentyl]methyl sulfamate]: the inhibition at 0.111 µM stood at 75% and the IC50 is 10 to 100 nM.
`Cc1cccc(Cc2csc(C(=O)c3cncnc3N[C@@H]3C[C@H](COS(N)(=O)=O)[C@@H](O)C3)n2)c1` [I-351, {(1R,2S,4R)-2-hydroxy-4-[(5-{[4-(3-methylbenzyl)-1,3-thiazol-2-yl]carbonyl}pyrimidin-4-yl)amino]cyclopentyl}methyl sulfamate]: the inhibition at 0.111 µM was found to be 93%.
In the case of `Cc1sc(C(=O)c2cncnc2N[C@@H]2C[C@H](COS(N)(=O)=O)[C@@H](O)[C@H]2O)nc1Cc1cccc(Cl)c1` [I-352, {(1R,2R,3S,4R)-4-[(5-{[4-(3-chlorobenzyl)-5-methyl-1,3-thiazol-2-yl]carbonyl}pyrimidin-4-yl)amino]-2,3-dihydroxycyclopentyl}methyl sulfamate], the inhibition at 0.111 µM is 100% and the IC50 was under 10 nM.
For `Cc1sc(C(=O)c2cncnc2N[C@@H]2C[C@H](COS(N)(=O)=O)[C@@H](O)C2)nc1Cc1cccc(Cl)c1` [I-353, {(1R,2S,4R)-4-[(5-{[4-(3-chlorobenzyl)-5-methyl-1,3-thiazol-2-yl]carbonyl}pyrimidin-4-yl)amino]-2-hydroxycyclopentyl}methyl sulfamate], the inhibition at 0.111 µM amounted to 98% and the IC50 was under 10 nM.
The corresponding values for `Cc1sc(C(=O)c2cncnc2N[C@@H]2C[C@H](COS(N)(=O)=O)[C@@H](O)[C@H]2O)nc1Cc1cccc(Br)c1` [I-354, {(1R,2R,3S,4R)-4-[(5-{[4-(3-bromobenzyl)-5-methyl-1,3-thiazol-2-yl]carbonyl}pyrimidin-4-yl)amino]-2,3-dihydroxycyclopentyl}methyl sulfamate] are 100% and under 10 nM.
Consider `NS(=O)(=O)OC[C@H]1C[C@@H](Nc2ncncc2C(=O)c2cc([C@@H]3OCCc4cc(Cl)ccc43)cs2)C[C@@H]1O` [I-357, [(1R,2S,4R)-4-[[5-[4-[(1R)-6-chloroisochroman-1-yl]thiophene-2-carbonyl]pyrimidin-4-yl]amino]-2-hydroxy-cyclopentyl]methyl sulfamate and [(1R,2S,4R)-4-[[5-[4-[(1S)-6-chloroisochroman-1-ylthiophene-2-carbonyl]pyrimidin-4-yl]amino}-2-hydroxy-cyclopentyl]methyl sulfamate], for which the “Percent Inhibition” value was found to be 97% and the IC50 was under 10 nM.
In the case of `Cc1sc(C(=O)c2cncnc2N[C@@H]2C[C@H](COS(N)(=O)=O)[C@@H](O)C2)cc1-c1nccc2ccc(Cl)cc12` [I-358, [(1R,2S,4R)-4-[[5-[4-(7-chloro-1-isoquinolyl)-5-methyl-thiophene-2-carbonyl]pyrimidin-4-yl]amino]-2-hydroxy-cyclopentyl]methyl sulfamate], the inhibition at 0.111 µM stood at 96% and the IC50 was under 10 nM.
Consider `Cc1sc(C(=O)c2cncnc2N[C@@H]2C[C@H](COS(N)(=O)=O)[C@@H](O)C2)cc1C1=NCCc2ccc(Cl)cc21` [I-360, ((1R,2S,4R)-4-{(5-(4-(7-chloro-3,4-dihydroisoquinolin-1-yl)-5-methylthiophene-2-carbonyl)pyrimidin-4-yl)amino)-2-hydroxycyclopentyl)methyl sulfamate], for which the inhibition at 0.111 µM was found to be 95% and the IC50 was under 10 nM.
For `NS(=O)(=O)OC[C@H]1C[C@@H](Nc2ncncc2C(=O)c2cc([C@@H]3OCCc4ccc(Cl)cc43)c(C(F)F)s2)C[C@@H]1O` [I-361, (1R,2S,4R)-4-[[5-[4-[(R)-7-chloroisochroman-1-yl]-5-(difluoromethyl)thiophene-2-carbonyl]pyrimidin-4-yl]amino]-2-hydroxy-cyclopentyl]methyl sulfamate and (1R,2S,4R)-4-[[5-[4-[(1S)-7-chloroisochroman-1-yl]-5-(difluoromethyl)thiophene-2-carbonyl]pyrimidin-4-yl]amino}-2-hydroxy-cyclopentyl]methyl sulfamate], the “Percent Inhibition” value is 95% and the IC50 is under 10 nM.
As to `Cc1sc(C(=O)c2cncnc2N[C@@H]2C[C@H](COS(N)(=O)=O)[C@@H](OC(=O)[C@H](C)N)C2)cc1[C@@H]1OCCc2ccc(Cl)cc21` [I-362, [(1S,2R,4R)-4-[5-[4-[(1R)-7-chloroisochroman-1-yl]-5-methyl-thiophene-2-carbonyl]pyrimidin-4-yl]amino]-2-(sulfamoyloxymethyl)cyclopentyl] (2S)-2-aminopropanoate; hydrochloride], the “Percent Inhibition” value was 91% and the IC50 lay within 10 to 100 nM.
In the case of `CC[C@H](C)[C@H](N)C(=O)O[C@H]1C[C@H](Nc2ncncc2C(=O)c2cc([C@@H]3OCCc4ccc(Cl)cc43)c(C)s2)C[C@@H]1COS(N)(=O)=O.Cl` [I-363, [(1S,2R,4R)-4-[[5-[4-[(1R)-7-chloroisochroman-1-yl]-5-methyl-thiophene-2-carbonyl]pyrimidin-4-yl]amino]-2-(sulfamoyloxymethyl)cyclopentyl (2S,3S)-2-amino-3-methyl-pentanoate hydrochloride], the IC50 lay in the range of 100 to 1000 nM.
Turning to `CC[C@H](C)[C@H](N)C(=O)O[C@H]1C[C@H](Nc2ncncc2C(=O)c2cc([C@@H]3OCCc4ccc(Cl)cc43)c(C)s2)C[C@@H]1COS(N)(=O)=O.Cl` [I-363], the “Percent Inhibition” value came to 57%.
In the case of `Cc1sc(C(=O)c2cncnc2N[C@@H]2C[C@H](COS(N)(=O)=O)[C@@H](OC(=O)Cc3ccc(OP(=O)(O)O)cc3)C2)cc1[C@@H]1OCCc2ccc(Cl)cc21` [I-364, [(1S,2R,4R)-4-[[5-[4-[(1R)-7-chloroisochroman-1-yl]-5-methyl-thiophene-2-carbonyl]pyrimidin-4-yl]amino]-2-(sulfamoyloxymethyl)cyclopentyl] 2-(4-phosphonooxyphenyl)acetate], the inhibition at 0.111 µM was 13%.
